US10105357B2, “Indication of antibiotic drugs for preparation of cancer inhibition pharmaceutical composition” (LAUNX BIOMEDICAL CO., LTD., priority 2014, dated 2018)
Structures can show the parent of a compound that is named as a salt. Where two headings read alike, the source gives them in different places.

Columns and labels:
[1] = system: PC3 (p53−) (Prostate Adenocarcinoma); assay: Cell viability analysis, prostate cancer PC3; assay type: cell-based, human; conditions: Homo sapiens, 72 h
[2] = system: A375 (Amelanotic Melanoma); assay: Cell viability analysis, skin cancer A375; assay type: cell-based, human; conditions: Homo sapiens, A-375, 72 h
[3] = system: LoVo (Colorectal Adenocarcinoma); assay: Cell viability analysis, colon cancer LoVo; assay type: cell-based, human; conditions: Homo sapiens, LoVo, 72 h
NIH: OVCAR-3 = assay: Cell viability analysis, ovarian cancer NIH: OVCAR-3; assay type: cell-based, human; conditions: Homo sapiens, OVCAR-3, 72 h, read-out: The results of antibiotic drug inhibiting cancer cell lines (cell viability analysis), NIH-OVCAR-3
[4] = system: Hep3B (hepatocellular carcinoma); assay: Cell viability analysis, hepatic cancer Hep3B; assay type: cell-based, human; conditions: Homo sapiens, Hep3B, 72 h, read-out: The results of antibiotic drug inhibiting cancer cell lines (cell viability analysis), Hep3B
U-2OS = assay: Cell viability analysis, osteosarcoma U-2OS; assay type: cell-based, human; conditions: Homo sapiens, U2OS, 72 h, read-out: The results of antibiotic drug inhibiting cancer cell lines (cell viability analysis), U2OS
[5] = system: BCC (basal cell carcinoma); assay: Cell viability analysis, skin cancer BCC; assay type: cell-based, human; conditions: Homo sapiens, 72 h, read-out: The results of antibiotic drug inhibiting cancer cell lines (cell viability analysis), BCC
T24 = assay: Cell viability analysis, bladder cancer T24; assay type: cell-based, human; conditions: Homo sapiens, T-24, 72 h, read-out: The results of antibiotic drug inhibiting cancer cell lines (cell viability analysis), T24
[6] = system: MDA-MB-231 (Mammary Gland, Adenocarcinoma); assay: Cell viability analysis, breast cancer MDA-MB-231; assay type: cell-based, human; conditions: Homo sapiens, MDA-MB-231, 72 h, read-out: The results of antibiotic drug inhibiting cancer cell lines (cell viability analysis), MDA-MB231
AsPC-1 = assay: Cell viability analysis, pancreatic cancer AsPC-1; assay type: cell-based, human; conditions: Homo sapiens, ASPC1, 72 h, read-out: The results of antibiotic drug inhibiting cancer cell lines (cell viability analysis), AsPC-1
[7] = system: HepG2 (Hepatocellular Carcinoma); assay: Cell viability analysis, hepatic cancer HepG2; assay type: cell-based, human; conditions: Homo sapiens, HepG2, 72 h
[8] = system: HeLa (Cervix Adenocarcinoma); assay: Cell viability analysis, cervical cancer HeLa; assay type: cell-based, human; conditions: Homo sapiens, HeLa, 72 h
TOV-21G = assay: Cell viability analysis, ovarian cancer TOV-21G; assay type: cell-based, human; conditions: Homo sapiens, TOV21G, 72 h, read-out: The results of antibiotic drug inhibiting cancer cell lines (cell viability analysis), TOV-21G
[9] = system: A549 (Lung Adenocarcinoma); assay: Cell viability analysis, lung cancer A549; assay type: cell-based, human; conditions: Homo sapiens, A549, 72 h
[10] = system: HI650 (Lung Adenocarcinoma); assay: Cell viability analysis, lung cancer HI650; assay type: cell-based, human; conditions: Homo sapiens, NCI-H1650, 72 h
[11] = system: MKN-45 (Gastric Adenocarcinoma); assay: Cell viability analysis, gastric cancer MKN-45; assay type: cell-based, human; conditions: Homo sapiens, MKN-45, 72 h
[12] = system: SAS (Tongue squamous cell carcinoma); assay: Cell viability analysis, tongue cancer SAS; assay type: cell-based, human; conditions: Homo sapiens, 72 h, read-out: The results of antibiotic drug inhibiting cancer cell lines (cell viability analysis), SAS
BxPC-3 = assay: Cell viability analysis, pancreatic cancer BxPC-3; assay type: cell-based, human; conditions: Homo sapiens, BXPC-3, 72 h, read-out: The results of antibiotic drug inhibiting cancer cell lines (cell viability analysis), BxPC-3
[13] = system: TSGH-8301 (Urinary Bladder Carcinoma); assay: Cell viability analysis, bladder cancer TSGH-8301; assay type: cell-based, human; conditions: Homo sapiens, 72 h
[14] = system: AGS (Gastric Adenocarcinoma); assay: Cell viability analysis, gastric cancer AGS; assay type: cell-based, human; conditions: Homo sapiens, 72 h
[15] = system: MCF7 (Mammary Gland, Adenocarcinoma); assay: Cell viability analysis, breast cancer MCF7; assay type: cell-based, human; conditions: Homo sapiens, MCF7, 72 h
[16] = system: HCT116 (p53+) (Colorectal Carcinoma)
[17] = system: 786-O (Renal adenocarcinoma); assay: Cell viability analysis, renal cancer 786-O; assay type: cell-based, human; conditions: Homo sapiens, 786-0, 72 h, read-out: The results of antibiotic drug inhibiting cancer cell lines (cell viability analysis), 786-O
cancer cell lines = assay: Cell viability analysis (WST-1) on cancer cell lines; assay type: cell-based, human; conditions: drug 10 μM, 72 hours, WST-1; Table 3
[18] = system: C-33A (Cervical carcinoma); assay: Cell viability analysis, cervical cancer C-33A; assay type: cell-based, human; conditions: Homo sapiens, C-33-A, 72 h, read-out: The results of antibiotic drug inhibiting cancer cell lines (cell viability analysis), C-33A
[19] = read-out: The results of antibiotic drug inhibiting cancer cell lines (cell viability analysis), PC-3, PC-3, repeated experiment
[20] = read-out: The results of antibiotic drug inhibiting cancer cell lines (cell viability analysis), A375, A375, repeated experiment
[21] = read-out: The results of antibiotic drug inhibiting cancer cell lines (cell viability analysis), LoVo, repeated experiment
[22] = read-out: The results of antibiotic drug inhibiting cancer cell lines (cell viability analysis), HepG2, HepG2, repeated experiment
[23] = read-out: The results of antibiotic drug inhibiting cancer cell lines (cell viability analysis), HeLa, repeated experiment
[24] = read-out: The results of antibiotic drug inhibiting cancer cell lines (cell viability analysis), A549, A549, repeated experiment
[25] = read-out: The results of antibiotic drug inhibiting cancer cell lines (cell viability analysis), H1650, H1650, repeated experiment
[26] = read-out: The results of antibiotic drug inhibiting cancer cell lines (cell viability analysis), MKN-45, MKN-45, repeated experiment
[27] = read-out: The results of antibiotic drug inhibiting cancer cell lines (cell viability analysis), TSGH-8301, TSGH-8301, repeated experiment
[28] = read-out: The results of antibiotic drug inhibiting cancer cell lines (cell viability analysis), AGS, repeated experiment
[29] = read-out: The results of antibiotic drug inhibiting cancer cell lines (cell viability analysis), MCF-7, MCF-7, repeated experiment

Compound: O=c1n(CCCN2CCN(c3cccc(Cl)c3)CC2)nc2ccccn12 [Trazodone hydrochloride (Desyrel), Trazodone hydrochloride]
- viability at 10 µM [1, 19]: 126%
- viability at 10 µM [2, 20]: 111%
- viability at 10 µM [3, 21]: 88.8%
- viability at 10 µM (NIH: OVCAR-3): 103%
- viability at 10 µM [4]: 110%
- viability at 10 µM (U-2OS): 57.6%
- viability at 10 µM [5]: 114%
- viability at 10 µM (T24): 106%
- viability at 10 µM [6]: 87.8%
- viability at 10 µM (AsPC-1): 89.4%
- viability at 10 µM [7, 22]: 109%
- viability at 10 µM [8, 23]: 105%
- viability at 10 µM (TOV-21G): 107%
- viability at 10 µM [9, 24]: 92%
- viability at 10 µM [10, 25]: 82.4%
- viability at 10 µM [11, 26]: 108%
- viability at 10 µM [12]: 58.4%
- viability at 10 µM (BxPC-3): 73.5%
- viability at 10 µM [13, 27]: 134%
- viability at 10 µM [14, 28]: 120%
- viability at 10 µM [15, 29]: 97.8%
- viability [16]: 113%
- viability at 10 µM [17]: 95.5%
- inhibition effect on different cancer cell lines (cancer cell lines): significant inhibition effect
- viability at 10 µM [18]: 112%

Compound: CC[C@H]1OC(=O)[C@H](C)[C@@H](O[C@H]2C[C@@](C)(OC)[C@@H](O)[C@H](C)O2)[C@H](C)[C@@H](O[C@@H]2O[C@H](C)C[C@H](N(C)C)[C@H]2O)[C@](C)(O)C[C@@H](C)CN(C)[C@H](C)[C@@H](O)[C@]1(C)O [Azithromycin Dihydrate]
- viability at 10 µM [1, 19]: 97.2%
- viability at 10 µM ([1]; read-out: cell viability (survival rate), PC3, drug 10 μM, 72 hours, WST-1, OD450 nm): 43%
- viability at 10 µM [2, 20]: 97.4%
- viability at 10 µM ([2]; read-out: cell viability (survival rate), A375, drug 10 μM, 72 hours, WST-1, OD450 nm): 50.8%
- viability at 10 µM [3, 21]: 79.2%
- viability at 10 µM ([3]; read-out: cell viability (survival rate), LoVo, drug 10 μM, 72 hours, WST-1, OD450 nm): 65.3%
- viability at 10 µM (NIH: OVCAR-3): 94%
- viability at 10 µM [4]: 109%
- viability at 10 µM (U-2OS): 70.3%
- viability at 10 µM [5]: 70.6%
- viability at 10 µM (T24): 112%
- viability at 10 µM [6]: 97.8%
- viability at 10 µM (AsPC-1): 75.3%
- viability at 10 µM [7, 22]: 91.4%
- viability at 10 µM ([7]; read-out: cell viability (survival rate), HepG2, drug 10 μM, 72 hours, WST-1, OD450 nm): 81.1%
- viability at 10 µM [8, 23]: 105%
- viability at 10 µM ([8]; read-out: cell viability (survival rate), HeLa, drug 10 μM, 72 hours, WST-1, OD450 nm): 55.6%
- viability at 10 µM (TOV-21G): 89.6%
- viability at 10 µM [9, 24]: 66.3%
- viability at 10 µM ([9]; read-out: cell viability (survival rate), A549, drug 10 μM, 72 hours, WST-1, OD450 nm): 41.4%
- viability at 10 µM [10, 25]: 98.6%
- viability at 10 µM ([10]; read-out: cell viability (survival rate), H1650, drug 10 μM, 72 hours, WST-1, OD450 nm): 61.3%
- viability at 10 µM [11, 26]: 95.8%
- viability at 10 µM ([11]; read-out: cell viability (survival rate), MKN-45, drug 10 μM, 72 hours, WST-1, OD450 nm): 51.2%
- viability at 10 µM [12]: 50%
- viability at 10 µM (BxPC-3): 71.3%
- viability at 10 µM [13, 27]: 119%
- viability at 10 µM ([13]; read-out: cell viability (survival rate), TSGH, drug 10 μM, 72 hours, WST-1, OD450 nm): 39.4%
- viability at 10 µM [14, 28]: 77.2%
- viability at 10 µM ([14]; read-out: cell viability (survival rate), AGS, drug 10 μM, 72 hours, WST-1, OD450 nm): 72.7%
- viability at 10 µM [15, 29]: 62.3%
- viability at 10 µM ([15]; read-out: cell viability (survival rate), MCF7, drug 10 μM, 72 hours, WST-1, OD450 nm): 36.4%
- viability [16]: 80.7%
- viability at 10 µM [17]: 91%
- inhibition effect on different cancer cell lines (cancer cell lines): significant inhibition effect
- viability at 10 µM [18]: 92.6%
